Measured values published in patent publication US20020162794A1, “Anaerobic digestion” (priority 2001, published 2002).
“And” between values parts separate entries of the source, which are not always exact repeats. Equal values may be shown once.

System: mixed culture from a publicly owned anaerobic digester (domestic sewage sludge)
Assay: Chemical Oxygen Demand (COD) of batch anaerobic digester reactors
Description: Two tests were run in which sodium formate in concentrations ranging from a few parts per million (ppm) up to ten percent (10%) on a mass basis were added to samples taken from a publicly owned anaerobic digester. The samples were first cultured in laboratory sized batch reactors. The twelve batch reactors were then sampled, and studied for periods of up to fifty-five days. The process variables that were monitored included COD (Chemical Oxygen Demand), TS (Total Solids), TVS (Total Volatile Solids) and the pH of the culture. Time and the initial sodium formate concentration level were the independent variables. Finally measurements were also made of the bacterial counts at the beginning and at the end of the fifty five day period. These experimental observations permitted partial identifications of the predominant bacterial colonies still viable in each of the twelve reactors used for each trial of the laboratory study.
Chemical Oxygen Demand (COD) measurements
To perform this measurement, a 5 ml of the sample from each of the 12 reactors is taken and diluted 10-fold to 50 ml. 5 ml of the now diluted sample is again diluted 10 fold to 50 ml. This double dilution represents a 100-fold dilution of the original sample. 2 ml of these diluted samples are put into standard COD test tubes. The test tubes are closed and shaken vigorously. The 13 (COD) test tubes (one is a control) are then heated to 150 deg. C for two hours. The UV spectrometer is calibrated by first analyzing the test tube with pure distilled water as the zero COD or control sample.
The sample test tubes are then analyzed for COD using UV spectrometer after inputting the method number and adjusting the frequency of UV rays to correspond to a sample with a high organic loading range. The readings that were obtained in units of mg/liter are multiplied by 100 to correct for the dilution procedure and to get COD concentration level for the original sample. COD is indicative of the organic substrate load level in the wastewater being treated or tested.
Municipal sludge from the city of Lubbock, Wastewater Treatment Plant was digested in 12 batch digesters. Using twelve batch reactors allowed the collection of control reactors data (i.e., no formate in the reactors) in triplicate, titration studies of increasing formate concentration, and duplicates/triplicates of varying formate concentration. Experiments were conducted in the laboratories of Texas Tech University.
The substrate taken was 2 parts of 50 g/liter sucrose solution mixed with 1 part of digested municipal sludge which acts as the seed material for incorporation of microbes into the reactors. The experiments were started with the following protocol. [drawing 1]

O=C[O-].[Na+] [sodium formate]
COD Concentration (1/4/99 run, 100 ppm, 0 Day): 29.5 g/L
COD Concentration (1/4/99 run, 100 ppm, 15 days): 43.8 g/L
COD Concentration (1/4/99 run, 100 ppm, 30 days): 39.1 g/L
COD Concentration (1/4/99 run, 1250 ppm, 0 Day): 40.3 g/L
COD Concentration (1/4/99 run, 1250 ppm, 15 days): 42.7 g/L
COD Concentration (1/4/99 run, 1250 ppm, 30 days): 32 g/L
COD Concentration (1/4/99 run, 2500 ppm, 0 Day): 17.1 g/L
COD Concentration (1/4/99 run, 2500 ppm, 15 days): 41.4 g/L
COD Concentration (1/4/99 run, 2500 ppm, 30 days): 38.9 g/L
COD Concentration (1/4/99 run, 3750 ppm, 0 Day): 38 g/L
COD Concentration (1/4/99 run, 3750 ppm, 15 days): 40.7 g/L
COD Concentration (1/4/99 run, 3750 ppm, 30 days): 47.8 g/L
COD Concentration (1/4/99 run, 5000 ppm, 0 Day): 37.5 g/L
COD Concentration (1/4/99 run, 5000 ppm, 15 days): 43.1 g/L
COD Concentration (1/4/99 run, 5000 ppm, 30 days): 46.6 g/L
COD Concentration (1/4/99 run, 6250 ppm, 0 Day): 34.3 g/L
COD Concentration (1/4/99 run, 6250 ppm, 15 days): 44.1 g/L
COD Concentration (1/4/99 run, 6250 ppm, 30 days): 38.1 g/L
COD Concentration (1/4/99 run, 7500 ppm, 0 Day): 36.7 g/L
COD Concentration (1/4/99 run, 7500 ppm, 15 days): 33 g/L
COD Concentration (1/4/99 run, 7500 ppm, 30 days): 55.8 g/L
COD Concentration (1/4/99 run, 8750 ppm, 0 Day): 24.9 g/L
COD Concentration (1/4/99 run, 8750 ppm, 15 days): 26.1 g/L
COD Concentration (1/4/99 run, 8750 ppm, 30 days): 53.8 g/L
COD Concentration (1/4/99 run, 10000 ppm, 0 Day): 33.8 g/L
COD Concentration (1/4/99 run, 10000 ppm, 15 days): 36.1 g/L
COD Concentration (1/4/99 run, 10000 ppm, 30 days): 45.5 g/L
COD Concentration, Average (1/4/99 run, average 25 ppm (reactors 0, 0, 0, 100 ppm), 0 Day): 37.825 g/L
COD Concentration, Average (1/4/99 run, average 25 ppm (reactors 0, 0, 0, 100 ppm), 15 days): 51.23 g/L
COD Concentration, Average (1/4/99 run, average 25 ppm (reactors 0, 0, 0, 100 ppm), 30 days): 39.125 g/L
COD Concentration, Average (1/4/99 run, average 2500 ppm (1250, 2500, 3750 ppm), 0 Day): 31.8 g/L
COD Concentration, Average (1/4/99 run, average 2500 ppm (1250, 2500, 3750 ppm), 15 days): 41.6 g/L
COD Concentration, Average (1/4/99 run, average 2500 ppm (1250, 2500, 3750 ppm), 30 days): 39.57 g/L
COD Concentration, Average (1/4/99 run, average 6250 ppm (5000, 6250, 7500 ppm), 0 Day): 36.17 g/L
COD Concentration, Average (1/4/99 run, average 6250 ppm (5000, 6250, 7500 ppm), 15 days): 40.07 g/L
COD Concentration, Average (1/4/99 run, average 6250 ppm (5000, 6250, 7500 ppm), 30 days): 46.83 g/L
COD Concentration, Average (1/4/99 run, average 8750 ppm (7500, 8750, 10000 ppm), 0 Day): 31.8 g/L
COD Concentration, Average (1/4/99 run, average 8750 ppm (7500, 8750, 10000 ppm), 15 days): 31.73 g/L
COD Concentration, Average (1/4/99 run, average 8750 ppm (7500, 8750, 10000 ppm), 30 days): 51.7 g/L
COD Concentration (7/1/99 run (Tables 5, 6), 1000 ppm, 0 Day (with formate addition)): 52 g/L and 60.8 g/L and 48.6 g/L
COD Concentration (7/1/99 run (Tables 5, 6), 1000 ppm, 7 Day): 65.8 g/L and 68.2 g/L and 50.3 g/L
COD Concentration (7/1/99 run (Tables 5, 6), 1000 ppm, 1 days, listed as Format): 51.5 g/L and 60.3 g/L and 57.2 g/L
COD Concentration (7/1/99 run (Tables 5, 6), 1000 ppm, 1 days, listed as Formate): 57.2 g/L
COD Concentration (7/1/99 run (Tables 5, 6), 1000 ppm, 4 days): 52 g/L and 51.4 g/L and 52.3 g/L
COD Concentration (7/1/99 run (Tables 5, 6), 1000 ppm, 9 days): 54.9 g/L and 48.5 g/L and 47.7 g/L
COD Concentration (7/1/99 run (Tables 5, 6), 1000 ppm, 16 days): 33.1 g/L and 41.4 g/L and 33.6 g/L
COD Concentration (7/1/99 run (Tables 5, 6), 1000 ppm, 55 days): 34 g/L and 46.6 g/L and 38 g/L
COD Concentration (7/1/99 run (Tables 5, 6), 5000 ppm, 0 Day (with formate addition)): 60.3 g/L
COD Concentration (7/1/99 run (Tables 5, 6), 5000 ppm, 7 Day): 52.2 g/L
COD Concentration (7/1/99 run (Tables 5, 6), 5000 ppm, 1 days): 46.8 g/L and 48.8 g/L
COD Concentration (7/1/99 run (Tables 5, 6), 5000 ppm, 4 days): 48.9 g/L
COD Concentration (7/1/99 run (Tables 5, 6), 5000 ppm, 9 days): 44.2 g/L
COD Concentration (7/1/99 run (Tables 5, 6), 5000 ppm, 16 days): 30.4 g/L
COD Concentration (7/1/99 run (Tables 5, 6), 5000 ppm, 24 days): 30.9 g/L
COD Concentration (7/1/99 run (Tables 5, 6), 5000 ppm, 55 days): 34.3 g/L
COD Concentration (7/1/99 run (Tables 5, 6), 10000 ppm, 0 Day (with formate addition)): 58.2 g/L and 69 g/L and 36.7 g/L
COD Concentration (7/1/99 run (Tables 5, 6), 10000 ppm, 7 Day): 56.4 g/L and 44.3 g/L
COD Concentration (7/1/99 run (Tables 5, 6), 10000 ppm, 1 days, listed as Format): 50.7 g/L and 52.3 g/L and 45.5 g/L
COD Concentration (7/1/99 run (Tables 5, 6), 10000 ppm, 1 days, listed as Formate): 45.5 g/L
COD Concentration (7/1/99 run (Tables 5, 6), 10000 ppm, 4 days): 47.3 g/L and 43.5 g/L and 43.2 g/L
COD Concentration (7/1/99 run (Tables 5, 6), 10000 ppm, 9 days): 49.9 g/L and 51.6 g/L and 43.7 g/L
COD Concentration (7/1/99 run (Tables 5, 6), 10000 ppm, 16 days): 38.2 g/L and 32 g/L and 40 g/L
COD Concentration (7/1/99 run (Tables 5, 6), 10000 ppm, 24 days): 40.8 g/L and 37.1 g/L and 40 g/L
COD Concentration (7/1/99 run (Tables 5, 6), 10000 ppm, 55 days): 49.7 g/L and 38.5 g/L and 32 g/L
COD Concentration (7/1/99 run (Tables 5, 6), 100000 ppm, 0 Day (with formate addition)): 49 g/L and 64.4 g/L
COD Concentration (7/1/99 run (Tables 5, 6), 100000 ppm, 7 Day): 74.9 g/L and 94.5 g/L
COD Concentration (7/1/99 run (Tables 5, 6), 100000 ppm, 1 days, listed as Format): 121 g/L and 165 g/L
COD Concentration (7/1/99 run (Tables 5, 6), 100000 ppm, 1 days, listed as Formate): 120.7 g/L and 165 g/L
COD Concentration (7/1/99 run (Tables 5, 6), 100000 ppm, 4 days): 65.5 g/L and 87.1 g/L
COD Concentration (7/1/99 run (Tables 5, 6), 100000 ppm, 9 days): 71 g/L and 89.6 g/L
COD Concentration (7/1/99 run (Tables 5, 6), 100000 ppm, 16 days): 57.5 g/L and 67.1 g/L
COD Concentration (7/1/99 run (Tables 5, 6), 100000 ppm, 24 days): 41.5 g/L and 25.6 g/L
COD Concentration (7/1/99 run (Tables 5, 6), 100000 ppm, 55 days): 64.8 g/L and 73.9 g/L
% (reduction of average COD versus 0 ppm) (7/1/99 run, 1000 ppm): 0.72%
COD Concentration, Average (7/1/99 run, 1000 ppm, average of 3 reactors, 0 Day): 53.8 g/L
COD Concentration, Average (7/1/99 run, 1000 ppm, average of 3 reactors, 7 Day): 61.43 g/L
COD Concentration, Average (7/1/99 run, 1000 ppm, average of 3 reactors, 1 days): 58.3 g/L and 56.3 g/L
COD Concentration, Average (7/1/99 run, 1000 ppm, average of 3 reactors, 4 days): 51.9 g/L
COD Concentration, Average (7/1/99 run, 1000 ppm, average of 3 reactors, 9 days): 50.37 g/L
COD Concentration, Average (7/1/99 run, 1000 ppm, average of 3 reactors, 16 days): 36.03 g/L
COD Concentration, Average (7/1/99 run, 1000 ppm, average of 3 reactors, 24 days): 36.6 g/L
COD Concentration, Average (7/1/99 run, 1000 ppm, average of 3 reactors, 55 days): 38.87 g/L
% (reduction of average COD versus 0 ppm) (7/1/99 run, 5000 ppm): 10.3%
COD Concentration, average over all sampling days (Averag) (7/1/99 run, 5000 ppm, 0 to 55 days): 43.5 g/L
% (reduction of average COD versus 0 ppm) (7/1/99 run, 10000 ppm): 5.79%
COD Concentration, Average (7/1/99 run, 10000 ppm, average of 3 reactors, 0 Day): 54.63 g/L
COD Concentration, Average (7/1/99 run, 10000 ppm, average of 3 reactors, 7 Day): 52.37 g/L
COD Concentration, Average (7/1/99 run, 10000 ppm, average of 3 reactors, 1 days): 49.5 g/L
COD Concentration, Average (7/1/99 run, 10000 ppm, average of 3 reactors, 4 days): 44.67 g/L
COD Concentration, Average (7/1/99 run, 10000 ppm, average of 3 reactors, 9 days): 48.4 g/L
COD Concentration, Average (7/1/99 run, 10000 ppm, average of 3 reactors, 16 days): 36.73 g/L
COD Concentration, Average (7/1/99 run, 10000 ppm, average of 3 reactors, 24 days): 39.3 g/L
COD Concentration, Average (7/1/99 run, 10000 ppm, average of 3 reactors, 55 days): 40.07 g/L
% (reduction of average COD versus 0 ppm) (7/1/99 run, 100000 ppm): −56.1%
COD Concentration, Average (7/1/99 run, 100000 ppm, average of 2 reactors, 0 Day): 56.7 g/L
COD Concentration, Average (7/1/99 run, 100000 ppm, average of 2 reactors, 7 Day): 84.7 g/L
COD Concentration, Average (7/1/99 run, 100000 ppm, average of 2 reactors, 1 days): 143 g/L
COD Concentration, Average (7/1/99 run, 100000 ppm, average of 2 reactors, 4 days): 76.3 g/L
COD Concentration, Average (7/1/99 run, 100000 ppm, average of 2 reactors, 9 days): 80.3 g/L
COD Concentration, Average (7/1/99 run, 100000 ppm, average of 2 reactors, 16 days): 62.3 g/L
COD Concentration, Average (7/1/99 run, 100000 ppm, average of 2 reactors, 24 days): 33.55 g/L
COD Concentration, Average (7/1/99 run, 100000 ppm, average of 2 reactors, 55 days): 69.35 g/L
COD reduction due to the formate (FIG. 2) (25 to 8,750 ppm, 0, 15 and 30 days): ~10%
average percent range in improvement of measured COD levels (domestic sewage): ≤ 12%
increase in COD reduction (FIG. 3) (from 0 formate up to about 5,000-7,000 ppm): about 10%
